According to publication PMC12005787, “Synthetic Lethality of SHP2 and XIAP Suppresses Proliferation and Metastasis in KRAS‐mutant Nonsmall Cell Lung Cancer” (Advanced Science, 2025):
pIC50: −log10 of the molar value.

Legend:
[1] = target: T1, HePTP (Homo sapiens, UniProt P35236); experiment: PTPs activity assay (DiFMUP); format: biochemical
T1 construct: His; made in house; host or cells: E. coli
T1 sequence (P35236 1-360): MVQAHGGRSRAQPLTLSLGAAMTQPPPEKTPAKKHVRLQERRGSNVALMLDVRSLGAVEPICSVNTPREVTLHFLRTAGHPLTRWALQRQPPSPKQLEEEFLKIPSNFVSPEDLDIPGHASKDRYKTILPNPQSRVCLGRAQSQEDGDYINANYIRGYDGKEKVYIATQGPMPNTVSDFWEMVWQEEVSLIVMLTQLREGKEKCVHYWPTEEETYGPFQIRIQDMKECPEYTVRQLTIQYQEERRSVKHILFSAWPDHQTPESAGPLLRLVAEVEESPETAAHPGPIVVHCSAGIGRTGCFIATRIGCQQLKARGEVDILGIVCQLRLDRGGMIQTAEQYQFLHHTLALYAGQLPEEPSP
Experimental: (§1) Catalytic activity screening methods for PTPs using candidate compounds were performed as previously described.^[ [77] ^] In brief, soluble fusion PTP proteins, His‐ΔSHP2, encompassing the peptide from amino acids 205–593 retaining PTP activity, His‐ΔSHP2^K325A, His‐ΔSHP1, encompassing the peptide from amino acids 202–595 retaining PTP activity, His‐PTP1B, His‐HePTP, His‐VHR, and His‐TCPTP were cloned, expressed, and purified in E. coli. After determining protein concentration using bicinchoninic acid (BCA) assay kit, 1 µg fusion protein, 10 µM library compound were added in 100 µL reaction mixture (55 mM 4‐(2‐hydroxyethyl)‐1‐piperazineethanesulfonic acid [HEPES], 100 mM sodium chloride [NaCl], 0.5 mM ethylenediaminetetraacetic acid [EDTA], 1 mM dithiothreitol [DTT], 0.01% Triton X‐100, 0.002% bovine serum albumin [BSA], and 0.1% dimethyl sulfoxide [DMSO]) and incubated at 37 °C for 30 min in the dark, with Na3VO4 as positive control. The detection substrate DiFMUP (50 µM) was promptly added to each reaction and functioned at 37 °C for 30 min in the dark. The fluorescence intensity was then measured using Multimode Plate Reader (λa = 358 nm, λe = 455 nm, PerkinElmer, USA).

[2] = target: T2, PTP1B (Homo sapiens, UniProt P18031); experiment: PTPs activity assay (DiFMUP); format: biochemical; conditions: read-out: IC50 of PTPs PTP1B
T2 construct: His; made in house; host or cells: E. coli
T2 sequence (P18031 1-435): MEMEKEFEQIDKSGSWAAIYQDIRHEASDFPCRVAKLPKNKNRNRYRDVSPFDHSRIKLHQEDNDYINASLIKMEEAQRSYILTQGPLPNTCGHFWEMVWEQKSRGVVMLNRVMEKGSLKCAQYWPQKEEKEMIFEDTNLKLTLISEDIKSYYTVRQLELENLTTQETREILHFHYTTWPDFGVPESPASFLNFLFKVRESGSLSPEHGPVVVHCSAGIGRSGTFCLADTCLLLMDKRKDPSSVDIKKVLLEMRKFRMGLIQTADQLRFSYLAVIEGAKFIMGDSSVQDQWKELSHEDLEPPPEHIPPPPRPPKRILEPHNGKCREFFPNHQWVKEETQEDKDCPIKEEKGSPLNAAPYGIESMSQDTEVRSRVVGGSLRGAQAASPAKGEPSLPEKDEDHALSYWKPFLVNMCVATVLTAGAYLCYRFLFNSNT
Experimental: as §1

[3] = target: T3, TCPTP (Homo sapiens, UniProt P17706); experiment: PTPs activity assay (DiFMUP); format: biochemical
T3 construct: His; made in house; host or cells: E. coli
T3 sequence (P17706 1-415): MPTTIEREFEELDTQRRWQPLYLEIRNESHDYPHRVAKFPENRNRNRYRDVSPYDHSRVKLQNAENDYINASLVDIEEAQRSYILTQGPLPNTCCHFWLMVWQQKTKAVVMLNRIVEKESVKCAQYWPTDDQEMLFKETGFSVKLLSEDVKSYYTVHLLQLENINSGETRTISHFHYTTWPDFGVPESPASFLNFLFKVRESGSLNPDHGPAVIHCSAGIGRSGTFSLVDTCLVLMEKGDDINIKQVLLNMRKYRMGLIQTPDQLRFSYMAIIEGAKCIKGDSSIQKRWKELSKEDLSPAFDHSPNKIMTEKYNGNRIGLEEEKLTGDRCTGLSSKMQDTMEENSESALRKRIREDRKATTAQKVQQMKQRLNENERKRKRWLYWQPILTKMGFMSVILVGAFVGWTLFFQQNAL
Experimental: as §1

[4] = target: T4, VHR (Homo sapiens, UniProt P51452); experiment: PTPs activity assay (DiFMUP); format: biochemical
T4 construct: His; made in house; host or cells: E. coli
Experimental: as §1

[5] = target: T5, ΔSHP1 (Homo sapiens, UniProt P29350); experiment: PTPs activity assay (DiFMUP); format: biochemical
T5 construct: His‐ΔSHP1, encompassing the peptide from amino acids 202–595 retaining PTP activity; His; made in house; host or cells: E. coli
Experimental: as §1

[6] = target: T6, ΔSHP2 (Homo sapiens, UniProt Q06124); experiment: PTPs activity assay (DiFMUP); format: biochemical
T6 construct: His‐ΔSHP2, encompassing the peptide from amino acids 205–593 retaining PTP activity; His; made in house; host or cells: E. coli
T6 sequence (Q06124 205-593): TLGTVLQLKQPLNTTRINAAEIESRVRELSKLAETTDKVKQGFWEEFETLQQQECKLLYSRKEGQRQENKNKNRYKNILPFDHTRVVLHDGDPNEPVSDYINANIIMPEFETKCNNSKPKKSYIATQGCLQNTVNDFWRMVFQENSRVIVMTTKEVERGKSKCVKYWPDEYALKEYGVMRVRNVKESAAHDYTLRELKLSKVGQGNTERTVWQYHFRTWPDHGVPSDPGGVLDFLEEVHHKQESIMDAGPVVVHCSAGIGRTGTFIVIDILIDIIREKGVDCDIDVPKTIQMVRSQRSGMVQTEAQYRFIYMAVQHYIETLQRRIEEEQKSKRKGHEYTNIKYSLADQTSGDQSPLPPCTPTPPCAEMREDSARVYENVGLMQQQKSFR
Experimental: as §1

[7] = test system: A549, NCI‐H2122, and NCI‐H1944 cells; experiment: Effect of candidate drugs on cell viability and colony formation; format: cell-based, human; conditions: 1, 10 and 50 μM viability; 10 µM colony formation
Experimental: supplies are listed in Supplementary Table S5. The relevant reagents for protein extraction from Escherichia coli are listed in Supplementary Table S6. Inhibitory effects of embelin on KRAS-mutant and wild-type cells are listed in Supplementary Table S7.
For the adherent cell viability assay, cells in the logarithmic growth phase were seeded in 96-well culture plates at a density of 5×103 well-1 and incubated overnight. Diluted compounds or DMSO were added, or specific treatments were incubated at 37 °C and 5% CO2 for 24 h or 48 h. Cell viability was determined using CCK-8 or CellLightTM Cell Viability Assay Kit, according to the manufacturer's protocol. The luminescence signals of the treated samples were normalized to those of the DMSO group.
For spherical cell viability assays, cells in the logarithmic growth phase were inoculated ata density of 4×10^3 well-1 into 96-well spherical cell microplates and incubated at 37 °C, 5% CO2 for 24 h or 48 h. Cell viability was measured using the CellTiter-Glo® Luminescent Cell Viability 3D Cell Viability Assay Kit, according to the manufacturer’s protocol. The remaining steps were the same as those described above.
Colony formation experiment […]
Finally, the staining results were recorded using an inverted microscope. […]

T5 sequence (P29350 202-595, stated change not applied): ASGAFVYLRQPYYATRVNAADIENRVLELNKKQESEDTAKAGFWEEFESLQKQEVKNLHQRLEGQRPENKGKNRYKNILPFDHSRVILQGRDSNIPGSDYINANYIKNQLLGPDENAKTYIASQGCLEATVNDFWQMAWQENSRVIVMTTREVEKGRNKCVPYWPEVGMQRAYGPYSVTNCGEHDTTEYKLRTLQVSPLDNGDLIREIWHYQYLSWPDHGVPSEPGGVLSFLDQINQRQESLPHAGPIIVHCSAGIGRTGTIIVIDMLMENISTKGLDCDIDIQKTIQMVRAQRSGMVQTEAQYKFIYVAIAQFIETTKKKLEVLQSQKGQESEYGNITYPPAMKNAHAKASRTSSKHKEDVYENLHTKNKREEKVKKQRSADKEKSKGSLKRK
T4 sequence (P51452 whole entry): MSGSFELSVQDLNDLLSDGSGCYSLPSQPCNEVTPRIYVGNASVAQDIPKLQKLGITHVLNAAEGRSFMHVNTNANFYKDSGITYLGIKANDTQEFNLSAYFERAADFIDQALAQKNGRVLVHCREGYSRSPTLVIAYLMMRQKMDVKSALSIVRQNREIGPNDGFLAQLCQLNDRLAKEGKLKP

pIC50 [1]: 3.69
pIC50 [2]: 3.84
pIC50 [3]: < 3.70
pIC50 [4]: 3.62
pIC50 [5]: < 3.70
pIC50 [6]: 4.66
SMILES: CC1=NN(c2ccc(C)c(C)c2)C(=O)/C1=N\Nc1cccc(-c2cccc(C(=O)O)c2)c1O [S2229, Eltrombopag Olamine]
effect on proliferation of KRAS‐mutation cells [7]: inhibited the proliferation
